pEC50: −log10 of the molar value. Where “and” joins values, the source holds several entries; their conditions need not be identical. Identical values can stand only once. Like-named read-outs stand apart in the source and are kept apart here.
Columns and labels:
[1] = target: CfEcR-DEF mutant L132V (Choristoneura fumiferana, UniProt O77255, L415V); assay: cell-based
How it was run: (§1)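 Mutant CfEcR-DEF receptor and GAL4-driven luciferase reporter constructs transfected into mouse NIH3T3 cells with DMSO or ligand added; maintained 48 h at 37° C in 5% FBS, harvested 40 h after ligand addition. Dual-luciferase read-out; fold induction = RLU with ligand / RLU with DMSO.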

[2] = target: CfEcR-DEF mutant A110P (Choristoneura fumiferana, UniProt O77255, A393P); assay: cell-based
How it was run: as §1

[3] = target: CfEcR-DEF mutant M125P (Choristoneura fumiferana, UniProt O77255, M408P); assay: cell-based
How it was run: as §1

[4] = target: CfEcR-DEF mutant W238P (Choristoneura fumiferana, UniProt O77255, W521P); assay: cell-based
How it was run: as §1

[5] = target: CfEcR-DEF mutant R95W (Choristoneura fumiferana, UniProt O77255, R378W); assay: cell-based
How it was run: as §1

[6] = target: CfEcR-DEF mutant M54W (Choristoneura fumiferana, UniProt O77255, M337W); assay: cell-based
How it was run: as §1

[7] = target: CfEcR-DEF mutant F109N (Choristoneura fumiferana, UniProt O77255, F392N); assay: cell-based
How it was run: as §1

[8] = target: CfEcR-DEF mutant F109W (Choristoneura fumiferana, UniProt O77255, F392W); assay: cell-based
How it was run: as §1

[9] = target: CfEcR-DEF mutant M125C (Choristoneura fumiferana, UniProt O77255, M408C); assay: cell-based
How it was run: as §1

[10] = target: CfEcR-DEF mutant F48L (Choristoneura fumiferana, UniProt O77255, F331L); assay: cell-based
How it was run: as §1

[11] = target: CfEcR-DEF mutant Y120W (Choristoneura fumiferana, UniProt O77255, Y403W); assay: cell-based
How it was run: as §1

[12] = target: CfEcR-DEF mutant L234M (Choristoneura fumiferana, UniProt O77255, L517M); assay: cell-based
How it was run: as §1

[13] = target: CfEcR-DEF mutant N119F/V96T (Choristoneura fumiferana, UniProt O77255, N402F/V379T); assay: cell-based
How it was run: as §1

[14] = target: CfEcR-DEF mutant V96W (Choristoneura fumiferana, UniProt O77255, V379W); assay: cell-based
How it was run: as §1

[15] = target: CfEcR-DEF mutant A110E (Choristoneura fumiferana, UniProt O77255, A393E); assay: cell-based
How it was run: as §1

[16] = target: CfEcR-DEF mutant A110W (Choristoneura fumiferana, UniProt O77255, A393W); assay: cell-based
How it was run: as §1

[17] = target: CfEcR-DEF mutant L132M (Choristoneura fumiferana, UniProt O77255, L415M); assay: cell-based; assay type: cell-based; conditions: for Emax: NIH3T3, 40 h, read-out: Rel Max FI, mutant L132M
Description: (§2) This construct was prepared in the same way as in switch 1.1 above except wild-type CfEcR-DEF was replaced with mutant CfEcR-DEF comprising a ligand binding domain comprising a substitution mutation selected from Table 1 below.
(§3) DNAs were transfected into mouse NIH3T3 cells (ATCC) as follows. Standard methods for culture and maintenance of the cells were followed. Cells were harvested and plated 96-well plates at 2,500 cells per well, in 50 μL of growth medium containing 10% fetal bovine serum (FBS). Twenty-four hours later, the cells were treated with 35 μL of serum-free growth medium containing either dimethylsulfoxide (DMSO; control) or a DMSO solution of ligand. The cells were then transfected using Superfect (Qiagen Inc.) transfection reagent. For each well, 0.625 μL of Superfect was mixed with 14.2 μL of serum-free growth medium. 0.16 μg of reporter construct and 0.04 μg of each receptor construct were added to the transfection reagent mix. The contents of the transfection mix were mixed in a vortex mixer and let stand at room temperature for 30 minutes. At the end of incubation, 15 μL of transfection mix was added to the cells. The cells were maintained at 37° C. and 5% CO2 for 48 hours in 5% FBS.
(§4) Reporter Assays: Cells were harvested 40 hours after adding ligands. 125 μL of passive lysis buffer (part of Dual-Luciferase reporter assay system from Promega Corporation) were added to each well of the […] plate. The plates were placed on a rotary shaker for 15 minutes. Twenty μL of lysate were assayed. Luciferase activity was measured using Dual-Luciferase reporter assay system from Promega Corporation following the manufacturer's instructions. Fold induction (FI) activities were calculated by dividing relative light units (“RLU”) in ligand treated cells with RLU in DMSO treated cells (untreated control).

[18] = target: CfEcR-DEF mutant F48N (Choristoneura fumiferana, UniProt O77255, F331N); assay: GAL4-driven luciferase reporter assay in NIH3T3 cells; assay type: cell-based
Description: as §2, §3, §4

[19] = target: CfEcR-DEF mutant V107I/Y127E/T52V (Choristoneura fumiferana, UniProt O77255, T335V/V390I/Y410E); assay: as above; assay type: cell-based
Description: as §2, §3, §4

[20] = target: CfEcR-DEF mutant M125W (Choristoneura fumiferana, UniProt O77255, M408W); assay: as above; assay type: cell-based
Description: as §2, §3, §4

[21] = target: CfEcR-DEF mutant T52V/A110P (Choristoneura fumiferana, UniProt O77255, A393P/T335V); assay: as above; assay type: cell-based
Description: as §2, §3, §4

[22] = NIH3T3, 40 h, read-out: Rel Max FI
[23] = NIH3T3, mouse, 40 h, read-out: GS-E ligand max FI (relative to DMSO)

Sequence of CfEcR-DEF mutant L132M (O77255 entry or part of it L415M): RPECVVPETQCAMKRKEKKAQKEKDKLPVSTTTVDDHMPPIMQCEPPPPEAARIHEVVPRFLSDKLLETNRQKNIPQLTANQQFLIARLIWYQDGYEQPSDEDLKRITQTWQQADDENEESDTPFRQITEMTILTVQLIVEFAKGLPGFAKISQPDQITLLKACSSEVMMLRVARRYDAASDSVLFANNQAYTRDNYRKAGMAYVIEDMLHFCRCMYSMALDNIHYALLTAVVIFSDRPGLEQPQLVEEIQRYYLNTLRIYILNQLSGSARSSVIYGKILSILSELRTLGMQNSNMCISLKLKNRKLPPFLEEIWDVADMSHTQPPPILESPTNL
Sequence of CfEcR-DEF mutant L132M (P28702 298-449, further chain): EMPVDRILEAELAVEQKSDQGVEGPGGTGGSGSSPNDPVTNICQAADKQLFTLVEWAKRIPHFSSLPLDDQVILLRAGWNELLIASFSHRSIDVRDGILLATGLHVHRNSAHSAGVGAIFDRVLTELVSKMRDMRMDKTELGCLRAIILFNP
Sequence of CfEcR-DEF mutant A110P (O77255 entry or part of it A393P): as the sequence (O77255 entry or part of it L415M) above, with A187P, M209L counted along it
Sequence of CfEcR-DEF mutant A110P (P28702 299-449, stated change not applied, further chain): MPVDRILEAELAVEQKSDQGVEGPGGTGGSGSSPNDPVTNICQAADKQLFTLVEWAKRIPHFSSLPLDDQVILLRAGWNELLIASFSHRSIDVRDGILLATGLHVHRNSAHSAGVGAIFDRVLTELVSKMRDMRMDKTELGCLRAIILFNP
Sequence of CfEcR-DEF mutant R95W (O77255 entry or part of it R378W): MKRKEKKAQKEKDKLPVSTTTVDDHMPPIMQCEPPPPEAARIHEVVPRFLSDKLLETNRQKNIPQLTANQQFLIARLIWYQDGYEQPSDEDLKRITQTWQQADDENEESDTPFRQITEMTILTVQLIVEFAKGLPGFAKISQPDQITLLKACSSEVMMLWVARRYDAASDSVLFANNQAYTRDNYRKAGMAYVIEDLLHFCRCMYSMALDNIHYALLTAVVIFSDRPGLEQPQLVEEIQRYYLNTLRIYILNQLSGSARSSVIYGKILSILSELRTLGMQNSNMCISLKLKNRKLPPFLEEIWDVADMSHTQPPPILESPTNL
Sequence of CfEcR-DEF mutant R95W (P28702 299-449, further chain): as the sequence (P28702 299-449, stated change not applied, further chain) above
Sequence of CfEcR-DEF mutant M54W (O77255 entry or part of it M337W): as the sequence (O77255 entry or part of it L415M) above, with M131W, M209L counted along it
Sequence of CfEcR-DEF mutant M54W (P28702 299-449, further chain): as the sequence (P28702 299-449, stated change not applied, further chain) above
Sequence of CfEcR-DEF mutant L132V (O77255 entry or part of it L415V): as the sequence (O77255 entry or part of it L415M) above, with M209V counted along it
Sequence of CfEcR-DEF mutant L132V (P28702 298-449, further chain): as the sequence (P28702 298-449, further chain) above
Sequence of CfEcR-DEF mutant V96W (O77255 entry or part of it V379W): as the sequence (O77255 entry or part of it R378W) above, with W160R, V161W counted along it
Sequence of CfEcR-DEF mutant V96W (P28702 299-449, further chain): as the sequence (P28702 299-449, stated change not applied, further chain) above
Sequence of CfEcR-DEF mutant N119F/V96T (O77255 entry or part of it V379T/N402F): as the sequence (O77255 entry or part of it R378W) above, with W160R, V161T, N184F counted along it
Sequence of CfEcR-DEF mutant N119F/V96T (P28702 299-449, further chain): as the sequence (P28702 299-449, stated change not applied, further chain) above
Sequence of CfEcR-DEF mutant W238P (P28702 299-449): as the sequence (P28702 299-449, stated change not applied, further chain) above
Sequence of CfEcR-DEF mutant W238P (O77255 entry or part of it W521P): as the sequence (O77255 entry or part of it R378W) above, with W160R, W303P counted along it
Sequence of CfEcR-DEF mutant L234M (P28702 299-449): as the sequence (P28702 299-449, stated change not applied, further chain) above
Sequence of CfEcR-DEF mutant L234M (O77255 entry or part of it L517M): as the sequence (O77255 entry or part of it L415M) above, with M209L, L311M counted along it

CCc1c(OC)cccc1C(=O)NN(C(=O)c1cc(C)cc(C)c1)C(C)(C)C [RG-102240, N-(2-ethyl-3-methoxybenzoyl)-N′-(3,5-dimethylbenzoyl)-N′-tert-butylhydrazine]
pEC50 [1]: 5.63
Emax [1, 22]: 100%
maximal fold induction [1, 23]: 2130
Concentration (mM) at max FI ([1]; mutant L132V, GS-E ligand): 0.01 mM
pEC50 [2]: 6.26
Emax [2, 22]: 100%
maximal fold induction [2, 23]: 2290
pEC50 [3]: < 4.48
Emax [3, 22]: 100%
maximal fold induction [3, 23]: 1
Concentration (mM) at max FI ([3]; mutant M125P, GS-E ligand): 0.0333 mM
pEC50 [4]: ~6.40
Emax [4, 22]: 100%
maximal fold induction [4, 23]: 4810
Concentration (mM) at max FI ([4]; mutant W238P, GS-E ligand): 10 mM
pEC50 [5]: ~5.15
Emax [5, 22]: 100%
maximal fold induction [5, 23]: 1820
Concentration (mM) at max FI ([5]; mutant R95W, GS-E ligand): 33.30 mM
pEC50 [6]: 5.93
Emax [6, 22]: 100%
maximal fold induction [6, 23]: 1680
Concentration (mM) at max FI ([6]; mutant M54W, GS-E ligand): 0.01 mM
pEC50 [7]: 5.57
Emax [7, 22]: 100%
maximal fold induction [7, 23]: 1510
Concentration (mM) at max FI ([7]; mutant F109N, GS-E ligand): 0.0333 mM
pEC50 [8]: 6.21
Emax [8, 22]: 100%
maximal fold induction [8, 23]: 3060
Concentration (mM) at max FI ([8]; mutant F109W, GS-E ligand): 10.00 mM
pEC50 ([9]; EC50, mutant M125C): ~5.10 and < 4.48
Emax [9, 22]: 100%
maximal fold induction [9, 23]: 9
Concentration (mM) at max FI ([9]; mutant M125C, GS-E ligand): 33.3 mM
pEC50 [10]: 6.34
Emax [10, 22]: 100%
maximal fold induction [10, 23]: 2600
Concentration (mM) at max FI ([10]; mutant F48L, GS-E ligand): 0.0333 mM
pEC50 [11]: 5.38
Emax [11, 22]: 100%
maximal fold induction [11, 23]: 1890
pEC50 [12]: 5.84
Emax [12, 22]: 100%
maximal fold induction [12, 23]: 4580
Concentration (mM) at max FI ([12]; mutant L234M, GS-E ligand): 33.30 mM
pEC50 [13]: ~5.10
Emax [13, 22]: 100%
maximal fold induction [13, 23]: 1740
Concentration (mM) at max FI ([13]; mutant N119F/V96T, GS-E ligand): 33.3 mM
pEC50 [14]: ~6.00
Emax [14, 22]: 100%
maximal fold induction [14, 23]: 615
Concentration (mM) at max FI ([14]; mutant V96W, GS-E ligand): 33.3 mM
pEC50 [15]: 6.23
Emax [15, 22]: 100%
maximal fold induction [15, 23]: 4930
Concentration (mM) at max FI ([15]; mutant A110E, GS-E ligand): 10.00 mM
pEC50 [16]: 5.86
Emax [16, 22]: 100%
maximal fold induction [16, 23]: 5210
Concentration (mM) at max FI ([16]; mutant A110W, GS-E ligand): 10.00 mM
Emax [17]: 100%
Emax ([17]; relative to max fold induction of GS-E ligand): 100%
maximal fold induction [17, 23]: 1520
Concentration at max FI ([17]; mutant L132M, GS-E ligand): 10.00 mM
pEC50 [18]: 6.12
Emax [18, 22]: 100%
pEC50 [19]: 7.22
Emax [19, 22]: 100%
pEC50 [20]: 5.46
Emax [20, 22]: 100%
pEC50 [21]: 6.48
Emax [21, 22]: 100%
